Legend:
[1] = molecular target: opiate receptors isolated from rat brain; test: Opiate Binding Assay (displacement of 3H-Naloxone); settings: concentration inhibiting specific binding of 1 nM 3H-Naloxone to rat brain receptor membranes by 50%
Protocol: Opiate Binding Assay. The test compounds were evaluated for their ability to displace the binding of ^3 H-Naloxone to opiate receptors isolated from rat brain. Male rats [Crl: CD(SD)BR] obtained from Charles River Laboratories (Portage, MI) were sacrificed by cervical dislocation. A purified homogenate of receptor membranes was prepared from the brains according to the method described by Chang and Cuatrecasas. (K.-J. Chang and P. Cuatrecasas. Multiple Opiate Receptors: Enkephalins And Morphine Bind To Receptors Of Different Specificity. J. Biol. Chem. 254, 2610-2618 (1979).) The brains were homogenized in 10 volumes of 0.32M sucrose and centrifuged twice at 6,000xg for 15 minutes. Following centrifugation of the supernatants at 40,000xg for 30 minutes, the pellets were resuspended in 5 mM tris-HCl, and centrifuged at 6,000. The supernatant was centrifuged at 40,000xg. The resuspension in 5 mM Tris-HCl was repeated twice. The final pellet was resuspended in 2 volumes of 50 mM tris HCl (pH 7.4). The homogenate was assayed for protein content according to the method of Itzhaki and Gill (R. F. Itzhaki and D. M. Gill. A Micro-Biuret Method for Estimating Proteins. Anal. Biochem. 9, 401-410 (1964)).
The binding of the test compounds to the receptor membrane preparation was measured using a modification of the method of Pert and Snyder (C. B. Pert and S. H. Synder. Properties of Opiate-Receptor Binding in Rat Brain. Proc. Natl. Acad. Sci. 70, 2243-2247 (1973)). The receptor assay was run using final concentrations of 1 nM ^3 H-Naloxone and of tissue homogenate (0.5 mg/ml of homogenate protein. Levorphanol (1×10^-5 M) was used as the displacer for non-specific binding. Final concentration of the test compounds was 10^-5 M. The assay was run in 0.05M tris HCl (pH 7.4). Total assay volume was 1.0 ml.
Samples were incubated at 25° C. for 60 min., filtered over Whatman GF/C glass fiber filters, and rinsed twice with 4 ml washes of ice-cold buffer. The filters were air-dried at 50° C. for 30 min. After drying 10 mls of PCS was added to the vial and the radioactivity determined using a Tracor Analytic Mark III liquid scintillation counter with a counting efficiency of 48%.
The IC50 values, the concentration of the test compounds which inhibited ^3 H-Naloxone specific binding to the opiate receptor by 50%, were obtained from log-logit plots of concentration-response curves.

[2] = test system: phenylbenzoquinone-induced writhing in mice; test: Writhing assay (phenylbenzoquinone-induced writhing); type: in vivo, mouse; settings: 30 min before phenylbenzoquinone i.p., active = writhes significantly less than saline group; for Writhing Mouse Oral: screening dose 10 mg/kg oral (intragastric); for Writhing Mouse Subc.: screening dose 10 mg/kg subcutaneous
Protocol: Writhing assay. Male Charles River albino mice (CD-1/HAM/1LR) weighing between 20 and 30 grams were used. Thirty minutes after subcutaneous or intragastric administration of the test compound (0.1 ml/10 gram body weight), 0.025% (w/v) phenylbenzoquinone was injected intraperitoneally (0.1 ml/10 gram body weight). Five minutes later, each mouse was placed in a large glass beaker and the number of writhes that occurred in the subsequent ten minutes is counted. A writhe consisted of dorsoflexion of the back, extension of the hindlimbs, and strong contraction of the abdominal musculature. The test compound was considered to have produced analgesia in a mouse if the number of writhes elicited by phenylbenzoquinone was equal to or less than one-half the median number of writhes recorded for the saline-treated group that day. The results were expressed as the number of mice (out of a possible ten) in which the test compound produced analgesia. […] If the initial test dose of 10 mg/kg inhibited writhing in greater than 6 of 10 mice, the effect of additional doses was evaluated and an ED50 value was calculated using a maximum likelihood function.

[3] = test system: brain opiate receptor sites; settings: partially purified brain opiate receptor sites; Bradberry et al. 1976; cited from earlier work
rat = settings: injected directly into the brain of the rat; Belluzi et al. 1976; cited from earlier work

Compound | IC50 [1] [nM] | Writhing Mouse Oral [2] | Writhing Mouse Subc. [2] | binding to brain opiate receptor sites [3] | analgesic activity (rat)
2,6-dimethyl-D-tyrosyl-N-(3-phenylpropyl)-D-methioninamide, monohydrochloride [Example 15] | 160 | Inactive | Inactive |  | 
2,6-dimethyl-L-tyrosyl-N-(3-phenylpropyl)-D-methioninamide, monohydrochloride [Example 14] | 0.2 | Active | Active |  | 
2,6-dimethyl-L-tyrosyl-α-(methylsulfinyl)-N-(3-phenylpropyl)-D-α-aminobutanamide, monohydrochloride [Example 16] | 0.4 | Active | Active |  | 
Cc1cc(O)cc(C)c1C[C@@H](N)C(=O)N[C@H](CC[S+](C)[O-])C(=O)NCCCc1ccccc1.Cl (stereo partly drawn) [Example 17, 2,6-dimethyl-D-tyrosyl-γ-(methylsulfinyl)-N-(3-phenylpropyl)-D-α-aminobutanamide, monohydrochloride] | 96 | Inactive | Inactive |  | 
L-tyrosyl-N-(3-phenylpropyl)-D-methioninamide, monohydrochloride [Example 4] | 16 | Inactive | Inactive |  | 
L-tyrosyl-γ-(methylsulfonyl)-N-(3-phenylpropyl)-DL-α-aminobutanamide, monohydrochloride [Example 8] | 9.6 | Inactive | Inactive |  | 
methionine enkephalin |  |  |  | binds stereospecifically | weak, fleeting analgesic activity
